The results in this text go back to patent publication US10759767B2 (priority 2012, dated 2020).

Data set [1] relates to Botrytis cinerea. The data set can be described thus: Microtest: activity against the grey mold Botrytis cinerea (Botrci). Particulars: Botrytis cinerea, 168 h, read-out: Observed efficacy; for inhibition of growth at 6.3e-05 ppm: solo 0.000063 ppm. The format is cell-based.
Data set [2] relates to Leptosphaeria nodorum. The data set can be described thus: Microtest: activity against wheat leaf spots caused by Leptosphaeria nodorum (Leptno). The format is cell-based. Particulars: Parastagonospora nodorum, 168 h, read-out: Observed efficacy.
In data set [3] the test system is Phytophthora infestans. As to the kind of experiment: microbe, parasite or virus in culture. The format is cell-based. Particulars: Phytophthora infestans, 168 h, read-out: Observed efficacy.
Data set [4] relates to Septoria tritici. As to the kind of experiment: Microtest: activity against leaf blotch on wheat caused by Septoria tritici (Septtr). The format is cell-based. Particulars: solo product; for inhibition of growth at 6.3e-05 ppm: 0.000063 ppm.
In data set [5] the test system is Alternaria solani. As to the kind of experiment: Microtest: activity against early blight caused by Alternaria solani (Alteso). It counts as cell-based. Particulars: Alternaria solani, 168 h, read-out: Observed efficacy; for inhibition of growth at 0.001 ppm: solo 0.001 ppm.
The subject of data set [6] is Pyricularia oryzae. The data set can be described thus: microbe, parasite or virus in culture. It counts as cell-based.
The mark [7] stands for this setting: Pyricularia oryzae, 168 h, read-out: Observed efficacy.

Each structure is given as a SMILES string. Like-named read-outs stand apart in the source and are kept apart here.

`CC#CC(O)(Cn1cncn1)c1ccc(Oc2ccc(Cl)cc2)cc1C(F)(F)F` (stereo not shown): the melting point (as a rule, the temperature, or range, at which the solid turns liquid) came to 137 °C.
In turn, `OC(Cn1cncn1)(c1ccc(Oc2ccc(Cl)cc2)cc1Cl)C1CC1` (stereo not shown) showed a melting point of 110 °C.
`CC#CC(O)(Cn1cncn1)c1ccc(Oc2ccc(Cl)cc2)cc1Cl` (stereo not shown) [I-1, 2-[2-chloro-4-(4-chlorophenoxyl)phenyl]-1-(1,2,4-triazol-1-yl)pent-3-yn-2-ol]: the melting point worked out at 137 °C. The inhibition of growth at 1e-06 ppm in data set [1] (solo 0.000001 ppm) was found to be 4%. In addition, the inhibition of growth at 4e-06 ppm in data set [1] (solo 0.000004 ppm) was 0%. Besides, in data set [1] (solo 0.000016 ppm), the inhibition of growth at 1.6e-05 ppm was 1%. Also, the inhibition of growth at 6.3e-05 ppm in data set [1] came to 0%. Moreover, the inhibition of growth at […] in data set [1] (solo 0.063 ppm) turned out to be 16%. Besides, in data set [2] (solo 0.063 ppm), the inhibition of growth at […] was 19%. Further, in data set [2] (solo product, 0.000063 ppm), the inhibition of growth at 6.3e-05 ppm worked out at 12%. The inhibition of growth at 16 ppm in data set [3] was found to be 0%. Also, the inhibition of growth at 4e-06 ppm in data set [4] (Zymoseptoria tritici, 168 h, second Septtr microtest, 0.000004 ppm, read-out: Observed efficacy) was 11%. In addition, the inhibition of growth at […] in data set [4] (Zymoseptoria tritici, 168 h, second Septtr microtest, 0.00063 ppm, read-out: Observed efficacy) worked out at 17%. Further, the inhibition of growth at 6.3e-05 ppm in data set [4] (Zymoseptoria tritici, 168 h, read-out: Observed efficacy) was 17%. In data set [5] (solo 0.00025 ppm), the inhibition of growth at […] worked out at 4%. Also, in data set [5], the inhibition of growth at 0.001 ppm was found to be 10%. Moreover, in data set [6] (setting [7]), the inhibition of growth at 0.001 ppm was 3% and the inhibition of growth at 0.016 ppm was determined as 0%. The molecule further came in with an Observed efficacy in data set [6] (solo product, 0.016 ppm) of 0%.
As to `OC(Cn1cncn1)(c1ccc(Oc2ccc(Cl)cc2)cc1C(F)(F)F)C1CC1` (stereo not shown) [I-4, 1-[4-(4-chlorophenoxy)-2-(trifluoromethyl)phenyl]-1-cyclopropyl-2-(1,2,4-triazol-1-yl)ethanol], the inhibition of growth at 6.3e-05 ppm in data set [1] is 4%; in data set [4] (Zymoseptoria tritici, 168 h, second Septtr microtest, read-out: Observed efficacy) it was 8%; in data set [5] (solo 0.000063 ppm), 5%. Further, the inhibition of growth at […] in data set [1] (solo 0.00025 ppm) came out at 2%; in data set [1] (solo 0.063 ppm) it was 4%; in data set [1] (solo 0.25 ppm), 17%; in data set [5] (solo 0.00025 ppm), 7%; in data set [5] (solo 0.25 ppm), 33%. In addition, the inhibition of growth at 0.001 ppm came out at 5% in data set [1] (solo 0.001 ppm); 15% in data set [2] (solo 0.001 ppm); 0% in data set [4] (Zymoseptoria tritici, 168 h, 0.001 ppm, read-out: Observed efficacy); 10% in data set [5]. Further, the inhibition of growth at 4 ppm in data set [3] came out at 3%. The inhibition of growth at 16 ppm in data set [3] was found to be 9%. Moreover, the inhibition of growth at 1.6e-05 ppm in data set [4] (Zymoseptoria tritici, 168 h, second Septtr microtest, 0.000016 ppm, read-out: Observed efficacy) amounted to 3%. Also, the Observed efficacy is 0% in data set [4] (second Septtr microtest, 0.001 ppm) and 18 in data set [4] (0.016 ppm). Also, in data set [6] (setting [7]), the inhibition of growth at 1 ppm came out at 47%.
